Measured values: ChEMBL document CHEMBL1132505, “Allosteric modulators of the AMPA receptor: novel 6-substituted dihydrophthalazines” (1999)

Assays:
Rattus norvegicus = test: In vivo anticonvulsant activity in rats using maximal electroshock (MES) assay; value ranges from 35-50 mg/kg; format: functional
[1] = biological target: Glutamate receptor ionotropic, AMPA (Rattus norvegicus) (UniProt P19491+P19492+P19493+P19490); test: Inhibition of KA induced currents associated with activation of the AMPA subtype of glutamate receptors in cerebellar neurons at a concentration of 10 uM; format: protein-complex assay
Mus musculus [2] = test: In vivo anticonvulsant activity in mice using maximal electroshock (MES) assay; value ranges from 35-50 mg/kg; format: functional
Mus musculus [3] = test: In vivo anticonvulsant activity in mice using maximal electroshock (MES) assay; format: functional
Mus musculus [4] = species: Mus musculus; test: Reduced sedation using rotarod test in mouse; format: functional

CCCNC(=O)N1N=C(c2ccc(N)cc2)c2cc3c(cc2C1C)OCO3 (stereo unspecified)
ED50 (Rattus norvegicus): 35 mg/kg | inhibition [1]: 58% | ED50 (Mus musculus [2]): 35 mg/kg

CCCNC(=O)N1N=C(c2ccc(N)cc2)c2cc(OC)ccc2C1C (stereo unspecified)
ED50 (Mus musculus [3]): 52 mg/kg | ED50 (Mus musculus [4]): 150 mg/kg | inhibition [1]: 52%

CCCNC(=O)N1N=C(c2ccc(N)cc2)c2cc(F)ccc2C1C (stereo unspecified)
inhibition [1]: 55%

CCCCNC(=O)N1N=C(c2ccc(N)cc2)c2cc3c(cc2C1C)OCO3 (stereo unspecified)
ED50 (Rattus norvegicus): 35 mg/kg | inhibition [1]: 62% | ED50 (Mus musculus [2]): 35 mg/kg

CCCCNC(=O)N1N=C(c2ccc(N)cc2)c2cc(OC)ccc2C1C (stereo unspecified)
inhibition [1]: 50%
